Where “and” joins values, the source holds several entries; their conditions need not be identical. Equal entries are not always repeated.
Columns and labels:
SARS-CoV-2 = assay: Hamster model of SARS-CoV-2 infection, oral NTZ treatment (lung infectious titers, lung viral RNA yields, plasma viral loads); format: in vivo, Syrian hamsters; design: Lung Infectious titers / Plasmatic viral RNA yields / Lung Viral RNA yields: unit not given here
[1] = Clinical course of the disease in infected hamsters (normalized weight, clinical signs); format: in vivo, Syrian hamsters; conditions: Favipiravir IP 926mg/kg/day BID, inoculum 104 TCID50, sacrifice day 3, Figure 3, individual animals
Description: Three-week-old female Syrian hamsters were provided by Janvier Labs (SPF status). Animals were maintained in ISOcage P - Bioexclusion System (Techniplast) with unlimited access to water/food and 14h/10h light/dark cycle. A wooden gnawing block and extra bedding material was provided as cage enrichment. Animals were weighed and monitored daily for the duration of the study to detect the appearance of any clinical signs of illness/suffering. General anesthesia was obtained with isoflurane (Isoflurin®, Axience). Euthanasia, which was also realized under general anesthesia, was performed by cervical dislocation.
Groups of 6 hamsters were intranasally infected with 10^4 TCID50 of virus. a Experimental timeline. b, f, j Viral replication in lung based on infectious titers (measured using a TCID50 assay) expressed in TCID50/g of lung (n=6 animals/group). c, g, k Viral replication in lung based on viral RNA yields (measured using an RT-qPCR assay) expressed in viral genome copies/g of lung (n=6 animals/group). d, h, l Plasma viral loads (measured using an RT-qPCR assay) are expressed in viral genome copies/mL of plasma (the dotted line indicates the detection threshold of the assay) (n=6 animals/group). e, i, m Clinical course of the disease (n=6 animals/group). Normalized weight at day n was calculated as follows: % of initial weight of the animal at day n. Data represent mean ± SD (Details in Supplementary Data 2).

[2] = FVP 926mg/kg/day BID intraperitoneally, 3 dpi
[3] = Favipiravir IP 926mg/kg/day BID, inoculum 104 TCID50, sacrifice day 3, Figure 3, individual animals, 926 mg/kg/day

In the case of NC(=O)c1nc(F)c[nH]c1=O [FVP, favipiravir], the “infectious titers in clarified lung homogenates vs untreated animals” value (SARS-CoV-2; [2]) is reported as “significant reductions”, the “viral RNA yields in clarified lung homogenates vs untreated animals” value (SARS-CoV-2; [2]) is reported as “significant reductions” and the “Lung Infectious titers” value (SARS-CoV-2; [3]) is reported as 6.755 and 6.354 and 7.035 and 6.515 and 6.109 and 6.625. The “Lung Viral RNA yields” value (SARS-CoV-2; [3]) was 6.542 and 6.443 and 6.907 and 6.536 and 6.197 and 6.702, the “Plasmatic viral RNA yields” value (SARS-CoV-2; Favipiravir IP 926mg/kg/day BID, inoculum 104 TCID50, sacrifice day 3, Figure 3, individual animals, ¤ : Detection threshold at 1000 cp/ml, 926 mg/kg/day) was 3.034 and 2.169 and 2.511 and 5.618 and the “Normalized weights Day 0” value [1] was 100. The “Normalized weights Day 1” value ([1]; 926 mg/kg/day) was 104.7 and 102.8 and 102.5 and 104.5 and 103.7 and 104.9, the “Normalized weights Day 2” value ([1]; 926 mg/kg/day) was 101.3 and 102.5 and 100.8 and 100.6 and 94.2 and 104.4 and the “Normalized weights Day 3” value ([1]; 926 mg/kg/day) was 97.1 and 105.0 and 92.2 and 91.0 and 105.5 and 105.7.

Source: article PMC9271885 (eBioMedicine, 2022)
